Data from article PMC5855545, “Role of Disulfide Bonds in Activity and Stability of Tigerinin-1R” (International Journal of Molecular Sciences, 2018).
“Also recorded” adds a separate entry of the source.

Legend:
[1] = Reversed-phase HPLC retention time (relative hydrophobicity); type: physicochemical; conditions: RP-HPLC at 25 °C; Zorbax 300 SB-C8 150 × 4.6 mm, linear AB gradient 1% acetonitrile/min, 1 mL/min, A 0.1% aqueous TFA pH 2, B 0.1% TFA in acetonitrile
INS-1 cells [2] = assay: Insulin-releasing activity in vitro (rat insulin ELISA); type: cell-based; conditions: 2.8 mM glucose; for insulin release at 10^−5 M compared with tigerinin-1R: 10^−5 M peptide, 1 h in KRB buffer at 37 °C, triplicate
Protocol: INS-1 cells were harvested with trypsin/EDTA, seeded into 6-well plates (3–5 × 10^5 cells/well), and allowed to attach overnight. Prior to the test, cells were preincubated in 1 mL Krebs-Ringer bicarbonate (KRB) buffer without glucose (115 mMNaCl, 4.7 mMKCl, 1.28 mM CaCl2,1.2 mM KH2PO4, 1.2 mM MgSO4, 10 mM NaHCO3, and 1 g/L BSA, pH 7.4) at 37 °C for 45 min. Cells were then incubated in the absence or presence of peptides for 1 h, using the same buffer with 2.8 mM glucose. The insulin supernatants were collected, and subsequently analyzed using ultrasensitive rat insulin ELISA kits (Mercodia, Sweden). The assay was repeated in triplicate.

[3] = Peptide degradation assay in 10% fetal bovine serum; type: in vitro ADME; conditions: 200 μM peptide in PBS, 37 °C
Protocol: Peptides dissolved in PBS to a final concentration of 200 μM were incubated with 10% fetal bovine serum at 37 °C. At different time points (0, 60, and 120 min), 20 μL peptide samples were taken and diluted with an equal volume of 0.1% aqueous trifluoroacetic acid (TFA). The samples were then analyzed by RP-HPLC. The experiment was performed on a Shimadzu HPLC system with a Zorbax 300 SB-C8 column (150 × 4.6 mm I.D.; 5 µm particle size, 300 Å pore size; Agilent Technologies, Palo Alto, CA, USA) using a linear AB gradient (1% acetonitrile/min) and a flow rate of 1 mL/min, where solvent A was 0.1% aqueous TFA, pH 2, and solvent B was 0.1% TFA in acetonitrile at 25 °C.

INS-1 cells [4] = assay: Protection against palmitic acid-induced apoptosis (MTT viability); type: cell-based, rat; conditions: 0.5 mM PA, 24 h
Protocol: Solutions of free fatty acids (FFAs) were prepared. Briefly, 100 mM palmitic acid (PA) stocks (Sigma, St. Louis, MO, USA) were prepared in 0.1 M NaOH at 70 °C. Ten percent (w/v) FFA-free BSA (Roche, Mannheim, Germany) solution was prepared in PBS buffer. A 5 mM FFA/10% BSA solution was prepared by mixing 50 μL FFA to 950 μL 10% BSA in a 60 °C water bath. The above solution was then cooled to room temperature, diluted in RPMI 1640 to 0.5 mM and filtered. Cells were added into 96-well plates (5 × 10^3 cells/well). Complete medium was withdrawn after overnight incubation at 37 °C. One hundred microliters of different peptides corresponding to a serial dilution series (concentrations 10^−9, 10^−7, 10^−5 M) diluted with medium containing 0.5 mM PA, was added for another 24 h. Meanwhile, incubation in fresh medium, with or without PA, were set as positive and negative controls, respectively. At the end of incubation, 20 μL of MTT solution (5 mg/mL in PBS) was added to each well and further incubated at 37 °C for 4 h. Cell viability was determined by dissolving the crystallized MTT with dimethyl sulfoxide (150 μL/well).

high-fat fed mice = conditions: administration to high-fat fed mice; cited from earlier work
From the text: (§1) Tigerinin-1R (Arg–Val–Cys–Ser–Ala–Ile–Pro–Leu–Pro–Ile–Cys–His–NH2) is a cationic peptide containing a disulfide bond that is isolated from the skin secretions of Hoplobatrachus ugulosus. […] In vivo studies have shown that administration of tigerinin-1R or some of its analog ...

bacteria = conditions: cited from earlier work
From the text: as §1

INS-1 cells [5] = assay: Measurement of intracellular Ca2+ (Fluo-3 AM, confocal microscopy); type: cell-based, rat; conditions: 10^−5 M peptide, 2.8 mM glucose; less than 30 mM KCl, significantly greater than glucose alone
Protocol: INS-1 cells (2 × 10^5) were cultured in glass bottom dishes (NEST, Wuxi, China). Following overnight culture, the cells were washed with KRB buffer three times, and then incubated with 5 μM fluorescent Ca^2+ probe Fluo-3 AM solution (Solarbio, Beijng, China). After loading for 30 min and washing three times with KRB buffer, cells were incubated for 15 min in the absence of Fluo-3 AM. KRB buffer supplemented with 2.8 mM glucose containing 10^−5 M peptide was then added. Images of cells were obtained by laser scanning confocal microscope (LSM710, Carl Zeiss, Oberkochen, Germany). The fluorescence was excited at 480 nm at 4 s intervals, and detected at 515 nm. Incubations in the presence of 2.8 mM glucose alone (negative control) or extra 30 mM KCl (positive control) were also carried out individually.

Kunming male mice = assay: Glucose tolerance in vivo in overnight-fasted mice; design: species or system mouse; conditions: n = 6
Protocol: Kunming male mice were housed individually in an air-conditioned room (22 ± 2 °C) with a 12 h light/12 h dark cycle, and were handled in accordance with the Guide for Care and Use of Laboratory Animals in China and approved by the animal ethics committee of Jilin University (Approval No. JLUSWLL003, Jilin, China; dated on 10 May 2017). Drinking water and standard laboratory chow were freely available. No adverse effects were observed following administration of the peptides. Age-matched groups (n = 6) of overnight-fasted mice received an intraperitoneal injection of either glucose (18 mmol/kg body weight), tigerinin-1R (75 nmol/kg body weight), or [C11K]tigerinin-1R (75 nmol/kg body weight) individually as control groups, and glucose in combination with tigerinin-1R or glucose in combination with [C11K]tigerinin-1R as experimental groups, respectively. All solutions were administered in 0.9% NaCl (5 mL/kg body weight). Blood samples were collected from the cut tip of the tail vein of conscious mice, before injection and at 15, 30, 60, and 120 min immediately after injection, and glucose was measured using a Sannuo stable blood glucose meter (Changsha, China) using corresponding test strips.

Ac-RVASAIPLPIAH-NH2 [tigerinin-linear]
tR (min), retention time during reversed-phase HPLC (relative hydrophobicity) [1]: 11.590 min | insulin release at 10^−5 M compared with tigerinin-1R (INS-1 cells [2]): lower insulin-releasing activity than tigerinin-1R

Ac-RVCSAIPLPIKH-NH2 [[C11K]tigerinin-1R]
stability: RP-HPLC peak area of intact peptide after 60 min ([3]; 60 min): decreased dramatically | stability: RP-HPLC peak area of intact peptide at/within 120 min [3]: almost disappeared

CSAIPLPIC-amide (C–C) (disulfide) [tigerinin-cyclic, tigerinin-1R analog retaining only the cyclic moiety]
insulin release at 10^−5 M compared with tigerinin-1R (INS-1 cells [2]): decrease in insulin-releasing ability

CCCCCCCCCCCCCCCC(=O)O [PA, palmitic acid]
viability of INS-1 cells with PA (positive control) (INS-1 cells [4]): 58.24%

RVCSAIPLPICH-amide (C–C) (disulfide) [tigerinin-1R, Arg–Val–Cys–Ser–Ala–Ile–Pro–Leu–Pro–Ile–Cys–His–NH2, cationic 12-mer peptide containing a disulfide bond, from frog skin secretions; parent peptide, synthesized here]
insulin release and glucose tolerance in high-fat fed mice (high-fat fed mice): significantly enhanced insulin release and improved glucose tolerance | antibacterial activity (bacteria): lacks antibacterial activity | concentration of intracellular Ca2+ (Fluo-3 fluorescence) (INS-1 cells [5]): produced an increase in the concentration of intracellular Ca^2+ | stability: RP-HPLC peak area of intact peptide at/within 120 min [3]: changed very little | tR (min), retention time during reversed-phase HPLC (relative hydrophobicity) [1]: 19.465 min | insulin secretion of INS-1 cells at different peptide concentrations (INS-1 cells [2]; 10^−8 to 10^−5 M, 1 h in KRB buffer pH 7.4 at 37 °C, compared to 2.8 mM glucose alone, n = 3): concentration-dependent manner | plasma glucose concentrations after peptide alone (Kunming male mice; 75 nmol/kg peptide i.p. alone, without glucose injection): little change in plasma glucose concentrations | glucose tolerance / hypoglycemic ability (plasma glucose) (Kunming male mice; 75 nmol/kg peptide i.p. with glucose 18 mmol/kg, 15-120 min): improved glucose tolerance; also recorded: higher hypoglycemic ability than [C11K]tigerinin-1R
